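96-well plates; 48 h exposure; 5 concentrations. Endpoints by linear interpolation between flanking doses. Not reached: highest tested concentration assigned. GI50: concentration for 50% inhibition of growth. TGI marks complete inhibition of growth.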
Columns and labels:
Test in all cases: inhibition of tumour cell growth, NCI panel, 48 h
[1] = tested on: 786-0 renal
[2] = tested on: A498 renal
[3] = tested on: A549 NSCLC
[4] = tested on: ACHN renal
[5] = tested on: BT-549 breast
[6] = tested on: CAKI-1 renal
[7] = tested on: CCRF-CEM leukemia
[8] = tested on: DU-145 prostate
[9] = tested on: HCC-2998 colon
[10] = tested on: HCT-116 colon
[11] = tested on: HCT-15 colon
[12] = tested on: HL-60(TB) leukemia
[13] = tested on: HOP-62 NSCLC
[14] = tested on: HOP-92 NSCLC
[15] = tested on: HS 578T breast
[16] = tested on: HT29 colon
[17] = tested on: IGROV1 ovarian
[18] = tested on: K-562 leukemia
[19] = tested on: KM12 colon
[20] = tested on: LOX IMVI melanoma
[21] = tested on: MALME-3M melanoma
[22] = tested on: MCF7 breast
[23] = tested on: MDA-MB-231 breast
[24] = tested on: MOLT-4 leukemia
[25] = tested on: NCI-H226 lung
[26] = tested on: NCI-H23 lung
[27] = tested on: NCI-H460 lung
[28] = tested on: NCI-H522 lung
[29] = tested on: NCI/ADR-RES ovarian
[30] = tested on: OVCAR-4 ovarian
[31] = tested on: OVCAR-5 ovarian
[32] = tested on: OVCAR-8 ovarian
[33] = tested on: PC-3 prostate
[34] = tested on: RPMI-8226 leukemia
[35] = tested on: RXF 393 renal
[36] = tested on: SF-268 CNS
[37] = tested on: SF-295 CNS
[38] = tested on: SF-539 CNS
[39] = tested on: SK-MEL-2 melanoma
[40] = tested on: SK-MEL-28 melanoma
[41] = tested on: SK-MEL-5 melanoma
[42] = tested on: SK-OV-3 ovarian
[43] = tested on: SN12C renal
[44] = tested on: SNB-19 CNS
[45] = tested on: SNB-75 CNS
[46] = tested on: SR leukemia
[47] = tested on: SW-620 colon
[48] = tested on: T-47D breast
[49] = tested on: TK-10 renal
[50] = tested on: U251 CNS
[51] = tested on: UACC-257 melanoma
[52] = tested on: UACC-62 melanoma
[53] = tested on: UO-31 renal
[54] = tested on: COLO 205 colon
[55] = tested on: EKVX NSCLC
[56] = tested on: M14 melanoma
[57] = tested on: MDA-MB-435
[58] = tested on: OVCAR-3 ovarian

SMILES: COc1ccc2c(=O)cc(C(Cl)(Cl)Cl)oc2c1
- GI50 [1]: 0.324 µM
- TGI [1]: 14.1 µM
- GI50 [2]: 0.213 µM
- TGI [2]: 3.36 µM
- GI50 [3]: 0.444 µM
- TGI [3]: 15.5 µM
- GI50 [4]: 0.412 µM
- TGI [4]: 13.8 µM
- GI50 [5]: 0.336 µM
- TGI [5]: 10.6 µM
- GI50 [6]: 0.376 µM
- TGI [6]: 14.6 µM
- GI50 [7]: 0.309 µM
- GI50 [8]: 0.309 µM
- TGI [8]: 0.971 µM
- GI50 [9]: 0.4 µM
- TGI [9]: 11.3 µM
- GI50 [10]: 0.299 µM
- TGI [10]: 14.3 µM
- GI50 [11]: 0.24 µM
- TGI [11]: 14.2 µM
- GI50 [12]: 0.269 µM
- TGI [12]: 0.836 µM
- GI50 [13]: 1.04 µM
- TGI [13]: 27.6 µM
- GI50 [14]: 0.361 µM
- TGI [14]: 23.3 µM
- GI50 [15]: 0.979 µM
- TGI [15]: 48.6 µM
- GI50 [16]: 0.345 µM
- TGI [16]: 10.9 µM
- GI50 [17]: 0.633 µM
- TGI [17]: 21.3 µM
- GI50 [18]: 0.0525 µM
- TGI [18]: > 100 µM
- GI50 [19]: 0.32 µM
- TGI [19]: 12.5 µM
- GI50 [20]: 0.173 µM
- TGI [20]: 5.03 µM
- GI50 [21]: 5.71 µM
- TGI [21]: 35.6 µM
- GI50 [22]: 0.262 µM
- TGI [22]: 14.6 µM
- GI50 [23]: 0.333 µM
- TGI [23]: 14.9 µM
- GI50 [24]: 0.302 µM
- TGI [24]: 4.44 µM
- GI50 [25]: 14.8 µM
- TGI [25]: 35.8 µM
- GI50 [26]: 0.409 µM
- TGI [26]: 19.3 µM
- GI50 [27]: 0.364 µM
- TGI [27]: 8.63 µM
- GI50 [28]: 0.228 µM
- TGI [28]: 0.683 µM
- GI50 [29]: 0.296 µM
- TGI [29]: 14.2 µM
- GI50 [30]: 0.423 µM
- TGI [30]: 30.7 µM
- GI50 [31]: 0.385 µM
- TGI [31]: 15.8 µM
- GI50 [32]: 0.338 µM
- TGI [32]: 10.4 µM
- GI50 [33]: 0.39 µM
- TGI [33]: 18.9 µM
- GI50 [34]: 0.389 µM
- TGI [34]: 3.82 µM
- GI50 [35]: 0.676 µM
- TGI [35]: 20.4 µM
- GI50 [36]: 0.377 µM
- TGI [36]: 15.6 µM
- GI50 [37]: 1.27 µM
- TGI [37]: 13 µM
- GI50 [38]: 0.208 µM
- TGI [38]: 0.583 µM
- GI50 [39]: 0.488 µM
- TGI [39]: 26.4 µM
- GI50 [40]: 0.632 µM
- TGI [40]: 23.2 µM
- GI50 [41]: 0.278 µM
- TGI [41]: 0.833 µM
- GI50 [42]: 0.511 µM
- TGI [42]: 31.5 µM
- GI50 [43]: 0.519 µM
- TGI [43]: 11.9 µM
- GI50 [44]: 3.77 µM
- TGI [44]: 48.1 µM
- GI50 [45]: 0.327 µM
- TGI [45]: 15.1 µM
- GI50 [46]: 0.058 µM
- TGI [46]: 91.5 µM
- GI50 [47]: 0.237 µM
- TGI [47]: 14.5 µM
- GI50 [48]: 12.2 µM
- TGI [48]: 55.3 µM
- GI50 [49]: 8.36 µM
- TGI [49]: 40.4 µM
- GI50 [50]: 1.14 µM
- TGI [50]: 11.1 µM
- GI50 [51]: 12 µM
- TGI [51]: 41.6 µM
- GI50 [52]: 0.438 µM
- TGI [52]: 17.5 µM
- GI50 [53]: 0.637 µM
- TGI [53]: 15.7 µM

SMILES: N#Cc1c(-c2ccc(Cl)cc2)[nH]c(=O)n(C2OC(CO)C(O)C(O)C2O)c1=O (stereo not given)
- TGI [1]: > 100 µM
- TGI [2]: > 100 µM
- TGI [3]: > 100 µM
- TGI [4]: > 100 µM
- TGI [5]: > 100 µM
- TGI [6]: > 100 µM
- TGI [7]: > 100 µM
- TGI [54]: > 100 µM
- TGI [8]: > 100 µM
- TGI [55]: > 100 µM
- TGI [9]: > 100 µM
- TGI [10]: > 100 µM
- TGI [11]: > 100 µM
- TGI [12]: > 100 µM
- TGI [13]: > 100 µM
- TGI [14]: > 100 µM
- TGI [15]: > 100 µM
- TGI [16]: > 100 µM
- TGI [17]: > 100 µM
- TGI [18]: > 100 µM
- TGI [19]: > 100 µM
- TGI [56]: > 100 µM
- TGI [22]: > 100 µM
- TGI [23]: > 100 µM
- TGI [57]: > 100 µM
- TGI [24]: > 100 µM
- TGI [25]: > 100 µM
- TGI [26]: > 100 µM
- TGI [27]: > 100 µM
- TGI [28]: > 100 µM
- TGI [29]: > 100 µM
- TGI [58]: > 100 µM
- TGI [30]: > 100 µM
- TGI [31]: > 100 µM
- TGI [32]: > 100 µM
- TGI [33]: > 100 µM
- TGI [34]: > 100 µM
- TGI [35]: > 100 µM
- TGI [36]: > 100 µM
- TGI [37]: > 100 µM
- TGI [38]: > 100 µM
- TGI [39]: > 100 µM
- TGI [40]: > 100 µM
- TGI [41]: > 100 µM
- TGI [42]: > 100 µM
- TGI [43]: > 100 µM
- TGI [44]: > 100 µM
- TGI [45]: > 100 µM
- TGI [47]: > 100 µM
- TGI [48]: > 100 µM
- TGI [49]: > 100 µM
- TGI [50]: > 100 µM
- TGI [51]: > 100 µM
- TGI [52]: > 100 µM
- TGI [53]: > 100 µM

— PubChem BioAssay (NCI)
